Assay: xn = mol fraction of the nth substance listed
Settings: 298.15 K, 101 kPa

CC(=O)[O-].CC[NH3+] + O
electrical conductivity (x1 = 0.003): 0.782 S/m
electrical conductivity (x1 = 0.0103): 1.89 S/m
electrical conductivity (x2 = 0): 0.222 S/m
electrical conductivity (x2 = 0.2027): 0.452 S/m
electrical conductivity (x2 = 0.3481): 0.745 S/m
electrical conductivity (x2 = 0.7999): 2.48 S/m
electrical conductivity (x2 = 0.8502): 2.75 S/m
electrical conductivity (x2 = 0.9436): 3.1 S/m
electrical conductivity (x2 = 0.9502): 3.11 S/m
electrical conductivity (x2 = 0.96): 3.08 S/m
electrical conductivity (x2 = 0.9685): 2.9 S/m
electrical conductivity (x2 = 0.9799): 2.65 S/m

From a compilation of properties of binary mixtures (doi:10.1016/j.molliq.2012.11.030)
